This note sets out measurements from US12673954B2 (BRISTOL-MYERS SQUIBB COMPANY, priority 2021, dated 2026).

By EC50 is commonly meant the concentration at which the effect is half-maximal.

SMILES strings stand for the structures. Where two headings read alike, the source gives them in different places. Some results are limits rather than exact numbers.

Assay [1] concerns IRF pathway, THP1-Dual™ cells. As to the kind of experiment: STING reporter assay in THP1-Dual cells, IRF pathway (Lucia luciferase, QUANTI-Luc). Conditions: THP1-Dual cells, 10% human plasma, 20 hours, Lucia luciferase, 100% activation = 100 μM cGAMP, read-out: IRF (EC50 μM). Type of assay: cell-based, human. The source says:
(§1) THP1-Dual™ cells were derived from the human THP-1 monocyte cell line by stable integration of two inducible reporter constructs. To this end, THP1-Dual™ cells allow the simultaneous study of the NF-κB pathway, by monitoring the activity of SEAP, and the IRF pathway by assessing the activity of a secreted luciferase (Lucia). Both reporter proteins are readily measurable in the cell culture supernatant when using QUANTI-Blue™, a SEAP detection reagent, and QUANTI-Luc™, a luciferase detection reagent.
(§2) THP1-Dual™ cells induce the activation of NF-κB in response to STING agonists. They also trigger the IRF pathway upon stimulation with STING agonists, such as cGAMP. Here, the THP-1-Dual cells were used to assess STING specific binders for function on the cellular level.
(§3) Serial dilutions of compounds in DMSO were added to low volume 384 well plates at 100 nl/well using an ECHO acoustic dispenser (Labcyte, model 550) to achieve final starting concentration of 100 μM in cell suspension. […] One column of the plate was reserved for treatment with cGAMP at 100 μM for 100% activation calculation and one column for no treatment (DMSO only) for baseline activation. Plates were then incubated in 37° C. incubator at 5% CO2 for 20 hours.
(§4) Plates were read on the Envision (Perkin Elmer) at 620 nm wavelength (OD620). In the luciferase assay, 5 μl of Quantiluc (Invivogen, Rep-qlc2) is added to white 384 well plates seeded with THP1 cells and read at 5 minutes on the Envision (Perkin Elmer) using a luminescence protocol (RLU). 100% activation was determined by value (RLU) of THP-1 Dual STING cells stimulated with 100 μM cGAMP (Invivogen, cat #TLRL-NACGA23-5).
For orientation: A reporter such as luciferase makes a cellular process visible.

In assay [2] the test system is NF-κB pathway, THP1-Dual™ cells. The assay is described as follows: STING reporter assay in THP1-Dual cells, NF-κB pathway (SEAP, QUANTI-Blue). It is filed as cell-based, human. To be noted: THP1-Dual cells, 10% human plasma, 20 hours, SEAP, 100% activation = 100 μM cGAMP, read-out: NFkB (EC50 μM).
Source text: as §1, §2, §3, §4

As for `Cc1cc(C(=O)O)c2oc(C(C)NC(=O)c3cnn4cccnc34)cc2c1` (racemic) [EXAMPLE 161, 5-Methyl-2-(1-(pyrazolo[1,5-a]pyrimidine-3-carboxamido)ethyl)benzofuran-7-carboxylic acid (racemic)], the EC50 amounted to 108 µM in assay [1] (Homo sapiens, THP1-Dual, 20 h) and 138 µM in assay [2] (Homo sapiens, THP1-Dual, 20 h).
Take `Cc1cc(C(=O)O)c2oc(C(C)NC(=O)c3cnn4cccnc34)cc2c1` (racemic) [EXAMPLE 186, 5-Methyl-2-(1-(pyrazolo[1,5-a]pyrimidine-3-carboxamido)ethyl)benzofuran-7-carboxylic acid]: the values for the EC50 in assay [1] and in assay [2] were 84 µM and over 100 µM, respectively.
For the compound `CCC(C)OC(=O)c1cccc2cc(CN3CCc4ccncc4C3=O)oc12` (racemic) [EXAMPLE 208, Sec-butyl 2-((1-oxo-3,4-dihydro-2,7-naphthyridin-2(1H)-yl)methyl)benzofuran-7-carboxylate], the EC50 in assay [1] (Homo sapiens, THP1-Dual, 20 h) worked out at 33 µM; in assay [2] (Homo sapiens, THP1-Dual, 20 h) it was 31 µM.
`CCOC(OC(=O)c1cccc2cc(CN3CCc4ccncc4C3=O)oc12)C(F)(F)F` (racemic) [EXAMPLE 210, 1-Ethoxy-2,2,2-trifluoroethyl 2-((1-oxo-3,4-dihydro-2,7-naphthyridin-2(1H)-yl)methyl)benzofuran-7-carboxylate]: the EC50 is 30 µM in assay [1] (Homo sapiens, THP1-Dual, 20 h) and 25 µM in assay [2] (Homo sapiens, THP1-Dual, 20 h).
The matching figures for `CCOC(=O)OC(C)OC(=O)c1cc(Cl)cc2cc(CNC(=O)c3cnn4cccnc34)oc12` (racemic) [EXAMPLE 261, 1-((Ethoxycarbonyl)oxy)ethyl 5-chloro-2-((pyrazolo[1,5-a]pyrimidine-3-carboxamido)methyl)benzofuran-7-carboxylate]: 0.95 µM and 0.82 µM.
As for `COc1cc(C(=O)OC(OC)C(F)(F)F)c2oc(CNC(=O)c3cnn4cccnc34)cc2c1` (racemic) [EXAMPLE 281, 2,2,2-Trifluoro-1-methoxyethyl 5-methoxy-2-((pyrazolo[1,5-a]pyrimidine-3-carboxamido)methyl)benzofuran-7-carboxylate], the EC50 in assay [1] (Homo sapiens, THP1-Dual, 20 h) was 11 µM; in assay [2] (Homo sapiens, THP1-Dual, 20 h), 14 µM.
The like results for `COC(=O)c1cc(C)cc2cc(C(C)NC(=O)c3cnn4cccnc34)oc12` (racemic) [Example 96, Methyl 5-methyl-2-(1-(pyrazolo[1,5-a]pyrimidine-3-carboxamido)ethyl)benzofuran-7-carboxylate (racemic)] were, in that order, 1.7 µM and 2 µM.
The matching figures for `COC(=O)c1cc(C)cc2c(Cl)c(C(C)NC(=O)c3cnn4cccnc34)oc12` (single isomer, unassigned) [EXAMPLE 120, Methyl-3-chloro-5-methyl-2-(1-(pyrazolo[1,5-a]pyrimidine-3-carboxamido)ethyl)benzofuran-7-carboxylate]: 2.7 µM and 3.2 µM.
`CC(OC(=O)c1cccc2cc(CN3CCc4ccncc4C3=O)oc12)C(F)(F)F` (single isomer, unassigned) [EXAMPLE 307, 1,1,1-Trifluoropropan-2-yl 2-((1-oxo-3,4-dihydro-2,7-naphthyridin-2(1H)-yl)methyl)benzo-furan-7-carboxylate]: the results for the EC50 in assay [1] and in assay [2] were 7.7 µM and 8.9 µM, respectively.
The like results for `CC(OC(=O)c1cccc2cc(CN3CCc4ccncc4C3=O)oc12)C(F)(F)F` (single isomer, unassigned) [EXAMPLE 308, 1,1,1-Trifluoropropan-2-yl 2-((1-oxo-3,4-dihydro-2,7-naphthyridin-2(1H)-yl)methyl)benzo-furan-7-carboxylate] were, in that order, 25 µM and 30 µM.
The like results for `CC(OC(=O)c1ccc(F)c2cc(CNC(=O)c3cnn4cccnc34)oc12)C(F)(F)F` (single isomer, unassigned) [EXAMPLE 309, 1,1,1-Trifluoropropan-2-yl 4-fluoro-2-((pyrazolo[1,5-a]pyrimidine-3-carboxamido)methyl)benzofuran-7-carboxylate] were, in that order, 6.1 µM and 7.2 µM.
The like results for `CC(OC(=O)c1ccc(F)c2cc(CNC(=O)c3cnn4cccnc34)oc12)C(F)(F)F` (single isomer, unassigned) [EXAMPLE 310, 1,1,1-Trifluoropropan-2-yl 4-fluoro-2-((pyrazolo[1,5-a]pyrimidine-3-carboxamido)methyl)benzofuran-7-carboxylate] were, in that order, 37 µM and 56 µM.
`COC(OC(=O)c1cc(F)cc2cc(CNC(=O)c3cnc4cccnn34)oc12)C(F)(F)F` (single isomer, unassigned) [EXAMPLE 313, 2,2,2-Trifluoro-1-methoxyethyl 5-fluoro-2-((imidazo[1,2-b]pyridazine-3-carboxamido)methyl)benzofuran-7-carboxylate]: the EC50 in assay [1] (Homo sapiens, THP1-Dual, 20 h) was determined as 3.1 µM; in assay [2] (Homo sapiens, THP1-Dual, 20 h), 3 µM.
Take `COC(OC(=O)c1cc(F)cc2cc(CNC(=O)c3cnc4cccnn34)oc12)C(F)(F)F` (single isomer, unassigned) [EXAMPLE 314, 2,2,2-Trifluoro-1-methoxyethyl 5-fluoro-2-((imidazo[1,2-b]pyridazine-3-carboxamido)methyl)benzofuran-7-carboxylate]: the EC50 in assay [1] and in assay [2] was 1.9 µM in each case.
`CC(OC(=O)c1cc(F)cc2cc(CNC(=O)c3cnc4cccnn34)oc12)C(F)(F)F` (single isomer, unassigned) [EXAMPLE 315, 1,1,1-Trifluoropropan-2-yl 5-fluoro-2-((imidazo[1,2-b]pyridazine-3-carboxamido)methyl)benzofuran-7-carboxylate]: the EC50 was 2.1 µM in assay [1] and 1.9 µM in assay [2].
The matching figures for `CC(OC(=O)c1cc(F)cc2cc(CNC(=O)c3cnc4cccnn34)oc12)C(F)(F)F` (single isomer, unassigned) [EXAMPLE 316, 1,1,1-Trifluoropropan-2-yl 5-fluoro-2-((imidazo[1,2-b]pyridazine-3-carboxamido)methyl)benzofuran-7-carboxylate]: 4.8 µM and 5.9 µM.
Regarding `CC(OC(=O)c1cc(F)cc2cc(CNC(=O)c3cnn4cccnc34)oc12)C(F)(F)F` (single isomer, unassigned) [EXAMPLE 317, 1,1,1-Trifluoropropan-2-yl 5-fluoro-2-((pyrazolo[1,5-a]pyrimidine-3-carboxamido)methyl)benzofuran-7-carboxylate], the EC50 in assay [1] stood at 1.4 µM; in assay [2], 1.3 µM.
The like results for `CC(OC(=O)c1cc(F)cc2cc(CNC(=O)c3cnn4cccnc34)oc12)C(F)(F)F` (single isomer, unassigned) [EXAMPLE 318, 1,1,1-Trifluoropropan-2-yl 5-fluoro-2-((pyrazolo[1,5-a]pyrimidine-3-carboxamido)methyl)benzofuran-7-carboxylate] were, in that order, 4.3 µM and 4.5 µM.
Take `COC(OC(=O)c1cc(F)cc2cc(CNC(=O)c3cnn4cccnc34)oc12)C(F)(F)F` (single isomer, unassigned) [EXAMPLE 319, 2,2,2-Trifluoro-1-methoxyethyl 5-fluoro-2-((pyrazolo[1,5-a]pyrimidine-3-carboxamido)methyl)benzofuran-7-carboxylate]: the EC50 in assay [1] (Homo sapiens, THP1-Dual, 20 h) came to 2.4 µM; in assay [2] (Homo sapiens, THP1-Dual, 20 h) it was 2.5 µM.
Regarding `COC(OC(=O)c1cc(F)cc2cc(CNC(=O)c3cnn4cccnc34)oc12)C(F)(F)F` (single isomer, unassigned) [EXAMPLE 320, 2,2,2-Trifluoro-1-methoxyethyl 5-fluoro-2-((pyrazolo[1,5-a]pyrimidine-3-carboxamido)methyl)benzofuran-7-carboxylate], the concentration for a half-maximal effect (EC50) in assay [1] and in assay [2] was 1.4 µM throughout.
On to `O=C(OC1CC(F)(F)C1(F)F)c1cc(F)cc2cc(CNC(=O)c3cnn4cccnc34)oc12` (single isomer, unassigned) [EXAMPLE 321, 2,2,3,3-Tetrafluorocyclobutyl 5-fluoro-2-((pyrazolo[1,5-a]pyrimidine-3-carboxamido)methyl)benzofuran-7-carboxylate], for which the values for the EC50 in assay [1] and in assay [2] were 0.3 µM and 0.38 µM, respectively.
On to `O=C(OC1CC(F)(F)C1(F)F)c1cc(F)cc2cc(CNC(=O)c3cnn4cccnc34)oc12` (single isomer, unassigned) [EXAMPLE 322, 2,2,3,3-Tetrafluorocyclobutyl 5-fluoro-2-((pyrazolo[1,5-a]pyrimidine-3-carboxamido)methyl)benzofuran-7-carboxylate], for which the EC50 in assay [1] was determined as 2.2 µM; in assay [2] it was 3.3 µM.
